In data set [1] the test system is Mus musculus. The data set is described as follows: Anti-osteoporosis activity in OVX-induced osteoporosis ICR mouse model assessed as decrease in trabecular spacing by in femur at 20 mg/kg, IG and measured after 12 weeks by micro-CT analysis relative to control. Format: functional.
Data set [2] relates to RAW264.7. The data set is described as follows: Inhibition of RANKL-induced osteoclastogenesis in mouse RAW264 cells assessed as number of osteoclast at 5 uM incubated for 5 days by TRAP staining based microscopic analysis (reference value: 95). Format: functional. Conditions: time 5 day.
The nature of data set [3]: Induction of osteogenesis in Wistar rat bone marrow-derived MSC assessed as increase in bone formation by measuring fold change at 0.4 uM measured after 14 days with fresh culture medium replacement for every 3 days by Alizarin red staining based analysis. Format: functional. The settings on record: time 14 day.
For data set [4], the system named is RAW264.7. The data set is described as follows: Inhibition of RANK/RANKL/OPG signaling pathway in RANKL-stimulated mouse RAW264.7 cells assessed as increase in c-Jun protein expression level at 1 uM after 5 days by Western blot analysis. Format: cell-based. The settings on record: time 5.0 day.
Data set [5] relates to MSC. The data set is described as follows: Induction of osteogenesis in Wistar rat bone marrow-derived MSC assessed as increase in increase in calcium nodes at 0.4 uM measured after 14 days with fresh culture medium replacement for every 3 days by Alizarin red staining based analysis. Format: functional, cell-based. The settings on record: time 14.0 day.
Data set [6] deals with Mus musculus. The data set is described as follows: Anti-osteoporosis activity in OVX-induced osteoporosis ICR mouse model assessed as increase in BV/TV by measuring fold change in femur at 20 mg/kg, IG and measured after 12 weeks by micro-CT analysis. Format: functional.
Data set [7] has as its system Mus musculus. The data set is described as follows: Anti-osteoporosis activity in OVX-induced osteoporosis ICR mouse model assessed as increase in trabecular number by measuring fold change in femur at 10 mg/kg, ip and measured after 12 weeks by micro-CT analysis. Format: functional.
The test system of data set [8] is RAW264.7. In words: Inhibition of RANKL-induced osteoclastogenesis in mouse RAW264 cells assessed as number of osteoclast at 1 uM incubated for 5 days by TRAP staining based microscopic analysis (reference value: 95). The settings on record: time 5 day. Format: functional.
For data set [9], the system named is Mus musculus. The data set is described as follows: Anti-osteoporosis activity in OVX-induced osteoporosis ICR mouse model assessed as increase in trabecular thickness by measuring fold change in femur at 10 mg/kg, ip and measured after 12 weeks by micro-CT analysis. Format: functional.
The test system of data set [10] is Mus musculus. The data set is described as follows: Anti-osteoporosis activity in OVX-induced osteoporosis ICR mouse model assessed as increase in BV/TV by measuring fold change in femur at 10 mg/kg, ip and measured after 12 weeks by micro-CT analysis. Format: functional.
Data set [11] concerns RAW264.7. The data set is described as follows: Inhibition of RANKL-induced osteoclastogenesis in mouse RAW264 cells assessed as number of osteoclast at 10 uM incubated for 5 days by TRAP staining based microscopic analysis (reference value: 95). Format: functional. Conditions: time 5 day.
Data set [12] has as its system Mus musculus. The data set is described as follows: Anti-osteoporosis activity in OVX-induced osteoporosis ICR mouse model assessed as increase in trabecular number in femur at 20 mg/kg, IG and measured after 12 weeks by micro-CT analysis. Format: functional, organism-based.
The subject of data set [13] is RAW264.7. In words: Inhibition of RANK/RANKL/OPG signaling pathway in RANKL-stimulated mouse RAW264.7 cells assessed as increase in OPG protein expression level at 1 uM after 5 days by Western blot analysis. Format: cell-based. The settings on record: time 5.0 day.
In data set [14] the test system is MSC. In words: Activation of BMP/Smad signaling pathway in Wistar rat bone marrow-derived MSC assessed as increase in smad1 mRNA expression at 0.4 uM incubated for 14 days by RT-qPCR analysis. Format: cell-based. The settings on record: filed as activator, time 14.0 day.
Data set [15] relates to MSC. In words: Activation of BMP/Smad signaling pathway in Wistar rat bone marrow-derived MSC assessed as increase in alp mRNA expression at 0.4 uM incubated for 14 days by RT-qPCR analysis. Format: cell-based. The settings on record: filed as activator, time 14.0 day.
Data set [16] concerns Mus musculus. The data set is described as follows: Anti-osteoporosis activity in OVX-induced osteoporosis ICR mouse model assessed as increase in bone mineral density by measuring fold change in femur at 10 mg/kg, ip and measured after 12 weeks by micro-CT analysis. Format: functional.
Data set [17] concerns RAW264.7. The data set is described as follows: Inhibition of RANK/RANKL/OPG signaling pathway in mouse RAW264.7 cells assessed as decrease in RANKL-stimulated NFATc-1 protein expression level at 1 uM after 5 days by Western blot analysis. Format: cell-based. The settings on record: time 5.0 day.
The subject of data set [18] is RAW264.7. In words: Inhibition of RANK/RANKL/OPG signaling pathway in mouse RAW264.7 cells assessed as decrease in RANKL-stimulated RANK protein expression level at 1 uM after 5 days by Western blot analysis. Conditions: time 5.0 day. Format: cell-based.
In data set [19] the test system is MSC. The data set is described as follows: Activation of BMP/Smad signaling pathway in Wistar rat bone marrow-derived MSC assessed as increase in bmp5 mRNA expression at 0.4 uM incubated for 14 days by RT-qPCR analysis. Conditions: filed as activator, time 14.0 day. Format: cell-based.
Data set [20] concerns Mus musculus. In words: Anti-osteoporosis activity in OVX-induced osteoporosis ICR mouse model assessed as decrease in trabecular spacing by in femur at 10 mg/kg, ip and measured after 12 weeks by micro-CT analysis relative to control. Details: scale not given: the % may be the effect or the level left. Format: functional.
Data set [21] concerns MSC. In words: Induction of osteogenesis in Wistar rat bone marrow-derived MSC assessed as increase in ALP at 0.4 uM measured after 1 week with fresh culture medium replacement for every 3 days by ALP staining based analysis. Format: functional, cell-based. The settings on record: time 1.0 weeks.
For data set [22], the system named is RAW264.7. The data set is described as follows: Cytotoxicity against mouse RAW264.7 cells assessed as reduction in cell viability at 1 to 10 uM after 72 hrs by MTS assay. Format: toxicity, cell-based. The settings on record: raw264.7, 72 h, dose 1-10 µM.
Data set [23] concerns MSC. The data set is described as follows: Activation of BMP/Smad signaling pathway in Wistar rat bone marrow-derived MSC assessed as increase in smad4 mRNA expression at 0.4 uM incubated for 14 days by RT-qPCR analysis. Format: cell-based. Conditions: filed as activator, time 14.0 day.
In data set [24] the test system is MSC. In words: Activation of BMP/Smad signaling pathway in Wistar rat bone marrow-derived MSC assessed as increase in smad9 mRNA expression at 0.4 uM incubated for 14 days by RT-qPCR analysis. Format: cell-based. Conditions: filed as activator, time 14.0 day.
Data set [25] in a line: Cytotoxicity against Wistar rat bone marrow-derived MSC assessed as reduction in cell viability at 0.4 to 10 uM after 72 hrs by MTS assay. Format: toxicity, cell-based. Conditions: dose 0.4-10 µM.
The subject of data set [26] is MSC. The data set is described as follows: Activation of BMP/Smad signaling pathway in Wistar rat bone marrow-derived MSC assessed as increase in bmp2 mRNA expression at 0.4 uM incubated for 14 days by RT-qPCR analysis. Format: cell-based. Conditions: filed as activator, time 14.0 day.
The subject of data set [27] is Mus musculus. The data set is described as follows: Anti-osteoporosis activity in OVX-induced osteoporosis ICR mouse model assessed as increase in bone mineral density by measuring fold change in femur at 20 mg/kg, IG and measured after 12 weeks by micro-CT analysis. Format: functional.
Data set [28] relates to Mus musculus. The data set is described as follows: Anti-osteoporosis activity in OVX-induced osteoporosis ICR mouse model assessed as increase in trabecular number by measuring fold change in femur at 20 mg/kg, IG and measured after 12 weeks by micro-CT analysis. Format: functional.
In data set [29] the test system is RAW264.7. The data set is described as follows: Inhibition of RANKL-induced osteoclastogenesis in mouse RAW264 cells assessed as decrease in number of osteoclast at 1 to 10 uM incubated for 5 days by TRAP staining based microscopic analysis. Format: functional, cell-based. The settings on record: dose 1-10 µM, time 5.0 day.
Data set [30] is described as follows: Cytotoxicity against Wistar rat bone marrow-derived MSC assessed as reduction in cell viability at 0.4 to 2 uM after 72 hrs by MTS assay. Format: toxicity, cell-based. Conditions: dose 0.4-2 µM.
Data set [31] can be described thus: Cytotoxicity against Wistar rat bone marrow-derived MSC assessed as inhibition of cell viability at 10 uM after 72 hrs by MTS assay relative to control. Format: toxicity, cell-based. Conditions: bone marrow-derived mesenchymal stem cells (MSC), read-out: INH.
The subject of data set [32] is Mus musculus. The data set is described as follows: Anti-osteoporosis activity in OVX-induced osteoporosis ICR mouse model assessed as increase in trabecular thickness by measuring fold change in femur at 20 mg/kg, IG and measured after 12 weeks by micro-CT analysis. Format: functional.
Data set [33] concerns MSC. In words: Induction of osteogenesis in Wistar rat bone marrow-derived MSC assessed as increase in ALP at 1 uM measured after 1 week with fresh culture medium replacement for every 3 days by ALP staining based analysis. Format: functional, cell-based. The settings on record: time 1.0 weeks.
Data set [34] concerns MSC. In words: Induction of osteogenesis in Wistar rat bone marrow-derived MSC assessed as increase in calcium nodes at 1 uM measured after 14 days with fresh culture medium replacement for every 3 days by Alizarin red staining based analysis. Format: functional, cell-based. The settings on record: time 14.0 day.
Data set [35] in a line: Induction of osteogenesis in Wistar rat bone marrow-derived MSC assessed as increase in bone formation by measuring fold change at 1 uM measured after 14 days with fresh culture medium replacement for every 3 days by Alizarin red staining based analysis. Format: functional. The settings on record: time 14 day.

Active and inactive are the calls of the source. No cut-off for these calls is given here.

For `COc1ccc(-c2coc3c4c(ccc3c2=O)OCN(Cc2ccoc2)C4)cc1`, the result in the data set on Mus musculus [1] and in the data set on Mus musculus [12] was inactive. Moreover, the Activity in the data set with RAW264.7 [2] was 24; in the data set with RAW264.7 [8], 30; with RAW264.7 [11], 29; in the data set with Mus musculus [20] it was 37%; in the data set on RAW264.7 [22] it was “Non-Toxic”; in data set [25] it was “Non-Toxic”. For the same molecule, the “fold change (FC)” value is given as 2.3 in data set [3]; 2.13 in the data set with Mus musculus [6]; 2.17 in the data set on Mus musculus [7]; 1.9 in the data set with Mus musculus [9]; 9.25 in the data set with Mus musculus [10]; 15.2 in the data set with Mus musculus [16]. In addition, the inhibition result in the data set on RAW264.7 [4], in the data set on RAW264.7 [13], in the data set on RAW264.7 [17] and with RAW264.7 [18] was “Active” throughout. The result in the data set on MSC [5], with MSC [14], in the data set with MSC [15], with MSC [19], in the data set on MSC [21] and with MSC [23] was Active. The outcome with MSC [24] and in the data set on MSC [26] was Active.

Regarding `CCCCN1COc2ccc3c(=O)c(-c4ccc(OC)cc4)coc3c2C1`, the Activity in the data set on Mus musculus [1] is recorded as 63%; with Mus musculus [20], 43%; with RAW264.7 [22] it was “Non-Toxic”; in data set [25], “Non-Toxic”. The “fold change (FC)” value was found to be 1.9 in [3]; 3.3 with Mus musculus [27]; 2.2 in the data set with Mus musculus [6]; 1.94 in the data set on Mus musculus [7]; 1.42 in the data set on Mus musculus [28]; 1.51 in the data set with Mus musculus [9]. Moreover, the results for the “fold change (FC)” value in the data set with Mus musculus [10] and with Mus musculus [16] were 6.47 and 10.3, respectively. Also, the inhibition entry in the data set with RAW264.7 [4], in the data set on RAW264.7 [13], with RAW264.7 [17], in the data set on RAW264.7 [18] and in the data set on RAW264.7 [29] was “inactive” each time. Further, the outcome in the data set on MSC [5] and in the data set with MSC [21] was Active.

In the case of `COc1ccc(-c2coc3c(C=O)c(O)ccc3c2=O)cc1`, the “fold change (FC)” value in [3] came out at 1.3. Further, the Activity entry in [30] was “Non-Toxic”. The cytotoxicity at 72 h, 10 µM in [31] worked out at 15.5%.

For `CCCCCCN1COc2ccc3c(=O)c(-c4ccc(OC)cc4)coc3c2C1`, the “fold change (FC)” value in data set [3] amounted to 1.2. Besides, the Activity result in [25] is “Non-Toxic”.

With `COc1ccc(-c2coc3c4c(ccc3c2=O)OCN(C2CCCCC2)C4)cc1`, in data set [3], the “fold change (FC)” value is on record as 0.8. The Activity entry in data set [25] is listed as “Non-Toxic”.

Take `CC(C)Oc1ccc2c(=O)c(-c3ccccc3)coc2c1` [IPRIFLAVONE]: the result with Mus musculus [1], in the data set on Mus musculus [12] and in the data set on Mus musculus [20] was inactive. Also, the “fold change (FC)” value came to 3.3 in the data set on Mus musculus [27], 1.17 in the data set on Mus musculus [32], 2.3 in the data set on Mus musculus [6] and 1.9 in the data set with Mus musculus [16].

For the molecule `COc1ccc(-c2coc3cc(O)ccc3c2=O)cc1` [FORMONONETIN], the Activity with RAW264.7 [8] worked out at 66. Further, the outcome in the data set with MSC [33] and in the data set with MSC [34] was Active. For the same molecule, the “fold change (FC)” value in data set [35] is reported as 1.4.

`COc1ccc(-c2coc3c4c(ccc3c2=O)OCN(Cc2ccccc2)C4)cc1`: in [3], the “fold change (FC)” value was 1. The Activity result in data set [25] is reported as “Non-Toxic”.

As for `CCCCCCCCNCc1c(O)ccc2c(=O)c(-c3ccc(OC)cc3)coc12`, in data set [3], the “fold change (FC)” value stood at 1.1. For the same molecule, the Activity result in data set [25] is “Non-Toxic”.
